Measured values: US20220281848A1, “PYRAZOLE-SUBSTITUTED PYRROLIDINONES AS HERBICIDES” (FMC Corporation, priority 2019, published 2022)

System: plants
Assay: Test D pre-emergence, other plants of Tables D1 and D3
Format: in vivo
Settings: for damage to plant (100=total damage to plant; 0=no damage to plant), SORVU: preemergent, 20 DAA; for damage to plant, ALOMY / damage to plant, AVEFA / damage to plant, BEAVA / damage to plant, BROTE / damage to plant, BRSNN / damage to plant, CHEAL / damage to plant, GALAP / damage to plant, HORVW / damage to plant, KCHSC / damage to plant, LOLPE / damage to plant, POAAN / damage to plant, POLCO / damage to plant, SINAR / damage to plant, STEME / damage to plant, VERPE: pre-emergence, 100=total damage, 0=no damage
Outline: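 Damage was rated visually from 0 (none) to 100 (total), at 20 DAA for pre-emergence and 15 d for post-emergence. Plants grew from safener-treated seed in a glasshouse at 24/18° C. or 20/16° C. day/night, 65% humidity, watered twice daily.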

## CCn1nc([C@H]2CN(C)C(=O)[C@@H]2C(=O)Nc2cccc(F)c2F)c2cc(F)ccc21 [Compound 8]
Rate 250
  damage to plant (100=total damage to plant; 0=no damage to plant), SORVU: 20
Rate 500
  damage to plant (100=total damage to plant; 0=no damage to plant), SORVU: 30
Rate 15, 20 DAA
  damage to plant, ALOMY: 0
  damage to plant, AVEFA: 0
  damage to plant, BEAVA: 0
  damage to plant, BROTE: 0
  damage to plant, BRSNN: 0
  damage to plant, CHEAL: 0
  damage to plant, GALAP: 0
  damage to plant, HORVW: 0
  damage to plant, KCHSC: 0
  damage to plant, LOLPE: 0
  damage to plant, POAAN: 0
  damage to plant, POLCO: 0
  damage to plant, SINAR: 0
  damage to plant, STEME: 0
  damage to plant, VERPE: 0
Rate 30, 20 DAA
  damage to plant, ALOMY: 0
  damage to plant, AVEFA: 0
  damage to plant, BEAVA: 0
  damage to plant, BROTE: 0
  damage to plant, BRSNN: 0
  damage to plant, CHEAL: 0
  damage to plant, GALAP: 0
  damage to plant, HORVW: 0
  damage to plant, KCHSC: 0
  damage to plant, LOLPE: 0
  damage to plant, POAAN: 0
  damage to plant, POLCO: 0
  damage to plant, SINAR: 0
  damage to plant, STEME: 0
  damage to plant, VERPE: 0
Rate 60, 20 DAA
  damage to plant, ALOMY: 0
  damage to plant, AVEFA: 0
  damage to plant, BEAVA: 0
  damage to plant, BROTE: 0
  damage to plant, BRSNN: 0
  damage to plant, CHEAL: 0
  damage to plant, GALAP: 0
  damage to plant, HORVW: 0
  damage to plant, KCHSC: 0
  damage to plant, LOLPE: 0
  damage to plant, POAAN: 0
  damage to plant, POLCO: 0
  damage to plant, SINAR: 0
  damage to plant, STEME: 0
  damage to plant, VERPE: 0
Rate 130, 20 DAA
  damage to plant, ALOMY: 0
  damage to plant, AVEFA: 0
  damage to plant, BEAVA: 0
  damage to plant, BROTE: 0
  damage to plant, BRSNN: 0
  damage to plant, CHEAL: 0
  damage to plant, GALAP: 0
  damage to plant, HORVW: 0
  damage to plant, KCHSC: 0
  damage to plant, LOLPE: 0
  damage to plant, POAAN: 0
  damage to plant, POLCO: 0
  damage to plant, SINAR: 0
  damage to plant, STEME: 0
  damage to plant, VERPE: 0
Rate 250, 20 DAA
  damage to plant, ALOMY: 0
  damage to plant, AVEFA: 0
  damage to plant, BEAVA: 0
  damage to plant, BROTE: 0
  damage to plant, BRSNN: 0
  damage to plant, CHEAL: 0
  damage to plant, GALAP: 0
  damage to plant, HORVW: 0
  damage to plant, KCHSC: 0
  damage to plant, LOLPE: 0
  damage to plant, POAAN: 0
  damage to plant, POLCO: 0
  damage to plant, SINAR: 0
  damage to plant, STEME: 0
  damage to plant, VERPE: 0
Rate 500, 20 DAA
  damage to plant, ALOMY: 10
  damage to plant, AVEFA: 10
  damage to plant, BEAVA: 0
  damage to plant, BROTE: 0
  damage to plant, BRSNN: 10
  damage to plant, CHEAL: 0
  damage to plant, GALAP: 0
  damage to plant, HORVW: 10
  damage to plant, KCHSC: 0
  damage to plant, LOLPE: 0
  damage to plant, POAAN: 60
  damage to plant, POLCO: 0
  damage to plant, SINAR: 0
  damage to plant, STEME: 0
  damage to plant, VERPE: 0
